This is an account of results in ChEMBL document CHEMBL1201862, “PubChem BioAssay data set” (2004).

Among the test systems are HOP-92; Hs-578T; MDA-N; PC-3; UACC-62; HT-29; HCC 2998; UACC-257; SK-MEL-2; SN12C; IGROV-1; T47D; HCT-15; OVCAR-3; SF-295; TK-10; UO-31; M14; 786-0; NCI-H522.
Common to all, as to experiment: DTP human tumour cell line panel, 48 h

Usually GI50 stands for the concentration at which growth is held to half of that of the control.

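Growth conditions: 96-well plates. Treatment: test compound, 48 hours, 5 concentrations. Analysis: linear interpolation between bracketing concentrations; unreached endpoints set to highest concentration. GI50: concentration for 50% inhibition of growth.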 Activity calls are given as the source filed them. No stated cut-off is given here; in the data, active = GI50 up to about 1.1 µM and inactive = higher. Some results are limits rather than exact numbers.

For `CCN(CC(=O)O)C(=O)c1cccnc1`, the GI50 in the experiment on HOP-92, in the experiment on Hs-578T, in the experiment with MDA-N, in the experiment on PC-3, in the experiment on UACC-62 and with HT-29 was > 100 µM (inactive) throughout. For the same compound, the GI50 in the experiment with HCC 2998, with UACC-257, with SK-MEL-2, in the experiment on SN12C, with IGROV-1 and in the experiment on T47D was > 100 µM (inactive) throughout. Also, the GI50 in the experiment with HCT-15 was over 100 µM; with OVCAR-3, > 100 µM (inactive); in the experiment with SF-295, > 100 µM (inactive); with TK-10, > 100 µM (inactive); in the experiment with UO-31, > 100 µM (inactive); in the experiment with M14, > 100 µM (inactive). For the same compound, the GI50 in the experiment with 786-0 and in the experiment with NCI-H522 was > 100 µM (inactive) throughout.
Regarding `O=S(=O)(O)Nc1ccc(-c2nc3ccccc3s2)cc1Cl`, the GI50 in the experiment with HOP-92, in the experiment on Hs-578T, in the experiment on MDA-N, in the experiment on PC-3, in the experiment on UACC-62 and in the experiment on HT-29 was > 100 µM (inactive) each time. Moreover, the GI50 with HCC 2998 is > 100 µM (inactive); in the experiment with UACC-257, > 100 µM (inactive); in the experiment with SK-MEL-2 it was > 100 µM (inactive); in the experiment with SN12C, > 100 µM (inactive); in the experiment with IGROV-1, 1.67 µM (inactive); in the experiment with T47D it was > 100 µM (inactive). The GI50 is over 100 µM in the experiment on HCT-15; > 100 µM (inactive) in the experiment with OVCAR-3; > 100 µM (inactive) in the experiment on SF-295; 8.09 µM (inactive) in the experiment on TK-10; > 100 µM (inactive) in the experiment with UO-31; > 100 µM (inactive) in the experiment on M14. Moreover, the GI50 in the experiment on 786-0 and with NCI-H522 was > 100 µM (inactive) throughout.
For `C/C(=N\NC(=O)c1ccncc1)c1ccc2ccccc2c1O`, the GI50 in the experiment on HOP-92 was 8.28 µM (inactive); in the experiment on Hs-578T it was 16.8 µM (inactive); with MDA-N, 4.41 µM (inactive); in the experiment on PC-3, 5.6 µM (inactive); with UACC-62, 2.19 µM (inactive); in the experiment on HT-29, 0.498 µM (active). In addition, the GI50 is 2.9 µM (inactive) with HCC 2998; 2.71 µM (inactive) in the experiment on UACC-257; 7.69 µM (inactive) in the experiment with SK-MEL-2; 1.62 µM (inactive) in the experiment on SN12C; 2.29 µM (inactive) with IGROV-1; 1.01 µM (active) in the experiment on T47D. Further, the GI50 was 0.419 µM in the experiment with HCT-15; 0.29 µM (active) in the experiment on OVCAR-3; 1.77 µM (inactive) with SF-295; 4.63 µM (inactive) in the experiment with TK-10; 0.838 µM (active) in the experiment with UO-31; 2.08 µM (inactive) in the experiment with M14. Moreover, the results for the GI50 with 786-0 and in the experiment with NCI-H522 were 0.548 µM (active) and 0.869 µM (active), respectively.
Regarding `COC(=O)NNc1c([N+](=O)[O-])cnn(-c2ccccc2)c1=O`, the GI50 is 2.18 µM (inactive) in the experiment on HOP-92; 4.53 µM (inactive) in the experiment on Hs-578T; 2.85 µM (inactive) in the experiment with MDA-N; 1.79 µM (inactive) in the experiment on PC-3; 2.11 µM (inactive) in the experiment on UACC-62; 2.04 µM (inactive) with HT-29. Also, the GI50 in the experiment on HCC 2998 is 5.36 µM (inactive); in the experiment with UACC-257, 2.51 µM (inactive); with SK-MEL-2, 2.95 µM (inactive); in the experiment with SN12C, 1.99 µM (inactive); with IGROV-1 it was 17.9 µM (inactive); with T47D it was 2.21 µM (inactive). The GI50 with HCT-15 is 2.45 µM; in the experiment on OVCAR-3 it was 1.97 µM (inactive); with SF-295 it was 3.46 µM (inactive); in the experiment on TK-10, 18.1 µM (inactive); in the experiment on UO-31, 8.93 µM (inactive); in the experiment with M14 it was 1.8 µM (inactive). Further, the GI50 in the experiment with 786-0 was 3.32 µM (inactive); in the experiment on NCI-H522, 0.995 µM (active).
Turning to `Cc1nc2ccc(S(=O)(=O)NS(=O)(=O)c3ccc(-c4ccccc4)cc3)cc2c(=O)n1NS(=O)(=O)c1ccc(-c2ccccc2)cc1`, the GI50 in the experiment on HOP-92 is 23.4 µM (inactive); with Hs-578T it was > 100 µM (inactive); in the experiment with MDA-N, > 100 µM (inactive); with PC-3 it was > 100 µM (inactive); in the experiment with UACC-62, > 100 µM (inactive); in the experiment with HT-29 it was > 100 µM (inactive). The GI50 in the experiment with HCC 2998 was > 100 µM (inactive); in the experiment on UACC-257, > 100 µM (inactive); with SK-MEL-2, > 100 µM (inactive); with SN12C, > 100 µM (inactive); with IGROV-1, 38.3 µM (inactive); in the experiment with T47D, > 100 µM (inactive). Moreover, the GI50 in the experiment on HCT-15 was over 100 µM; with OVCAR-3, > 100 µM (inactive); in the experiment on SF-295, > 100 µM (inactive); in the experiment on TK-10 it was > 100 µM (inactive); in the experiment on UO-31, > 100 µM (inactive); in the experiment on M14, > 100 µM (inactive). Also, the GI50 in the experiment on 786-0 and in the experiment with NCI-H522 was > 100 µM (inactive) each time.
Turning to `C=COC(=O)N1C2CCCC(Cl)(C(C)=O)C1CC2` (stereo not given), the GI50 in the experiment with HOP-92 is > 100 µM (inactive); in the experiment on Hs-578T, > 100 µM (inactive); in the experiment on MDA-N, 79.1 µM (inactive); in the experiment with PC-3, > 100 µM (inactive); in the experiment with UACC-62, > 100 µM (inactive); in the experiment with HT-29, > 100 µM (inactive). For the same compound, the GI50 in the experiment with HCC 2998, in the experiment on UACC-257, in the experiment with SK-MEL-2, with SN12C, in the experiment with IGROV-1 and in the experiment with T47D was > 100 µM (inactive) throughout. The GI50 is over 100 µM in the experiment with HCT-15; > 100 µM (inactive) in the experiment on OVCAR-3; > 100 µM (inactive) in the experiment on SF-295; > 100 µM (inactive) in the experiment with TK-10; > 100 µM (inactive) with UO-31; > 100 µM (inactive) with M14. For the same compound, the GI50 in the experiment with 786-0 and in the experiment on NCI-H522 was > 100 µM (inactive) in each case.
For the compound `O=C1/C(=c2\c3ccccc3n3c(=O)c4ccccc4nc23)Nc2ccccc21` [CANDIDINE], the GI50 with HOP-92 was > 75.7 µM (inactive); in the experiment with Hs-578T, 29.9 µM (inactive); with MDA-N, 18.6 µM (inactive); in the experiment on PC-3 it was > 100 µM (inactive); in the experiment with UACC-62, 43.9 µM (inactive); in the experiment with HT-29, 26.6 µM (inactive). Besides, the GI50 in the experiment with HCC 2998 was > 82.4 µM (inactive); in the experiment on UACC-257 it was > 86.7 µM (inactive); with SK-MEL-2, > 100 µM (inactive); with SN12C, > 100 µM (inactive); in the experiment on IGROV-1, > 100 µM (inactive); in the experiment on T47D it was > 26.7 µM (inactive). In addition, the GI50 was over 100 µM with HCT-15; 45.9 µM (inactive) in the experiment on OVCAR-3; > 78.3 µM (inactive) with SF-295; > 100 µM (inactive) in the experiment on TK-10; > 21.5 µM (inactive) in the experiment on UO-31; > 38.7 µM (inactive) in the experiment with M14. For the same compound, the GI50 in the experiment on 786-0 is 58.7 µM (inactive); in the experiment on NCI-H522, > 100 µM (inactive).
Regarding `C/C1=C\C=C(\C(C)C)CC/C(C(=O)O)=C\CC/C(C)=C/CC1` [NEOCROTOCEMBRANEIC ACID], the GI50 is 19.4 µM (inactive) in the experiment on HOP-92; 43.6 µM (inactive) with Hs-578T; 28.8 µM (inactive) in the experiment with MDA-N; 18 µM (inactive) with PC-3; 13.1 µM (inactive) in the experiment with UACC-62; 32 µM (inactive) with HT-29. For the same compound, the GI50 in the experiment with HCC 2998 is 18.7 µM (inactive); in the experiment on UACC-257, 22.5 µM (inactive); with SK-MEL-2, 18.1 µM (inactive); in the experiment on SN12C it was 21.2 µM (inactive); in the experiment on IGROV-1 it was 42 µM (inactive); in the experiment on T47D, 34.4 µM (inactive). For the same compound, the GI50 with HCT-15 was 21.4 µM; in the experiment on OVCAR-3 it was 16.6 µM (inactive); in the experiment on SF-295, 20 µM (inactive); with TK-10, 31.8 µM (inactive); with UO-31, 30.3 µM (inactive); in the experiment on M14, 29 µM (inactive). In addition, the values for the GI50 with 786-0 and in the experiment on NCI-H522 were 24.6 µM (inactive) and 19.3 µM (inactive), respectively.
Consider `COc1cc(-c2cc(-c3ccccc3)nc(-c3c(OC)ccc4c(C)cc(=O)oc34)c2)cc(OC)c1OC`, for which the GI50 with HOP-92, in the experiment on Hs-578T, in the experiment with MDA-N, in the experiment on PC-3, in the experiment with UACC-62 and in the experiment on HT-29 was > 100 µM (inactive) in each case. The GI50 with HCC 2998, in the experiment with UACC-257, in the experiment on SK-MEL-2, in the experiment with SN12C, with IGROV-1 and in the experiment on T47D was > 100 µM (inactive) in each case. The GI50 in the experiment on HCT-15 was over 100 µM; in the experiment on OVCAR-3, > 100 µM (inactive); in the experiment on SF-295, > 100 µM (inactive); in the experiment on TK-10, > 100 µM (inactive); with UO-31, > 100 µM (inactive); in the experiment on M14, > 100 µM (inactive). Moreover, the GI50 in the experiment with 786-0 and in the experiment on NCI-H522 was > 100 µM (inactive) each time.
Regarding `O=S(=O)(Nc1ccccc1)c1ccc(-c2c3nc(c(-c4ccc(S(=O)(=O)Nc5ccccc5)cc4)c4ccc([nH]4)c(-c4ccc(S(=O)(=O)Nc5ccccc5)cc4)c4nc(c(-c5ccc(S(=O)(=O)Nc6ccccc6)cc5)c5ccc2[nH]5)C=C4)C=C3)cc1`, the GI50 is 12.8 µM (inactive) in the experiment on HOP-92; > 31.6 µM (inactive) in the experiment with Hs-578T; > 31.6 µM (inactive) with MDA-N; > 31.6 µM (inactive) in the experiment on PC-3; > 31.6 µM (inactive) with UACC-62; > 31.6 µM (inactive) with HT-29. Also, the GI50 is 17.7 µM (inactive) in the experiment with HCC 2998; 26.4 µM (inactive) in the experiment on UACC-257; > 31.6 µM (inactive) in the experiment on SK-MEL-2; > 31.6 µM (inactive) in the experiment on SN12C; > 93.3 µM (inactive) in the experiment with IGROV-1; > 31.6 µM (inactive) in the experiment on T47D. The GI50 in the experiment on HCT-15 is over 31.6 µM; in the experiment with OVCAR-3 it was > 10 µM (inactive); with SF-295 it was 22.9 µM (inactive); with TK-10, > 31.6 µM (inactive); in the experiment with UO-31, > 31.6 µM (inactive); in the experiment on M14, 12.6 µM (inactive). Also, the GI50 is 18.9 µM (inactive) in the experiment with 786-0 and > 31.6 µM (inactive) in the experiment on NCI-H522.
